Assay results from patent publication US11666661B2, “Methods and compounds for targeted autophagy” (THE REGENTS OF THE UNIVERSITY OF CALIFORNIA, priority 2018, dated 2023).

Assays:
Type in all cases: binding
LC3A (C17) = LC3A (C17) (Homo sapiens, UniProt Q9H492); experiment: gel-based ABPP screen of cysteine-reactive covalent ligands against IA-alkyne labeling of LC3A; conditions: for hit that displaced IA-alkyne probe labeling of C17 on LC3A (loss of in-gel fluorescence): pure LC3A protein
Source text: The critical part of this platform was to first develop a small-molecule recruiter for an autophagy adapter. We performed chemoproteomics-enabled covalent ligand discovery against the autophagy adapter LC3A, an important autophagy protein involved in substrate recognition, to discover an LC3A-recruiter, which can be combined with a protein targeting ligand via a linker to enable targeted protein autophagy of undruggable targets. […] While the NETS-ester probe appeared to label multiple sites on LC3A, the IA-alkyne probe apparently labeled one site, consistent with only one cysteine within LC3A-C17. Across the LC3 proteins, LC3A is the only protein that bears one cysteine. We next screened our cysteine-reactive covalent ligand library against iodoacetamide-alkyne (IA-alkyne) labeling of C17 on LC3A, and looked for hits that displaced probe-labeling resulting in loss of fluorescence by gel. Through this effort, we identified several cysteine-reactive acrylamide hits, including TRH 1-65, TRH 1-68, TRH 1-170, TRH 1-171, YP 1-44, CC 1-42, CC 1-48, EN2, EN7, EN35, and EN40 (FIGS. 5A-5D). These small-molecule recruiters or analogs of these chemical scaffolds that also bind to LC3A C17 can now be appended to linkers and protein targeting ligands to send specific protein cargo, and associated cellular contents, compartments, cells, or organelles off for targeted protein autophagy and lysososomal degradation. […] Examples of compounds that can be appended onto an autophagy adapter recruiter is JQ1, an inhibitor of bromodomain-containing BRD4 protein (an epigenetic regulator implicated in numerous human cancers). JQ1 can be appended to a linker, and an LC3A recruiter EN7 to degrade BRD4 in cells (FIGS. 7A-7C). Protein autophagy degrader can also be used to broadly recognize misfolded proteins and protein aggregates by conjugating thioflavin T, a general aggregate-protein recognizing compound, to a linker and EN7 to send these toxic protein aggregates and misfolded proteins to the autophagosome for lysosomal degradation (FIG. 8).

LC3A = LC3A (Homo sapiens, UniProt Q9H492); experiment: Gel-based ABPP analysis against LC3A; conditions: IA-alkyne probe
Experimental: FIGS. 5A-5D. Covalent ligand screen against LC3A. Gel-based ABPP screen of cysteine-reactive ligand library against IA-alkyne labeling of LC3A. Cysteine-reactive covalent ligands were pre-incubated with LC3A pure protein (50 microM) for 30 min at room temperature prior to IA-alkyne labeling of the protein (10 microM) for 30 min at room temperature. Proteins were run on SDS/PAGE and in-gel fluorescence was analyzed.

p62/SQSTM1 protein = p62/SQSTM1 protein (Homo sapiens, UniProt Q13501); experiment: MS/MS of direct adduct on a peptide derived from p62/SQSTM1
Source text: FIG. 14. MS/MS data corresponding to the direct adduct of EN96 on a peptide derived from p62/SQSTM1.

SQSTM1 (p62) = SQSTM1 (p62) (Homo sapiens, UniProt Q13501); experiment: gel-based ABPP cysteine-reactive covalent ligand screen against SQSTM1 (p62); conditions: FIGS. 10A-10B
Source text: We have performed a cysteine-reactive covalent ligand screen against the autophagy adapter protein SQSTM1 (p62) using gel-based activity-based protein profiling (ABPP) approaches. We have identified several hit compounds that targeted a cysteine on SQSTM1 (FIGS. 10A-10B). […] To test whether we can use this potential SQSTM1 recruiter EN96 in a TADT platform, we synthesized BMF-1-64, which links EN96 to a BRD4 inhibitor JQ1, to determine whether we could degrade BRD4 in a proteasome-independent manner (FIG. 11).

Sequence of p62/SQSTM1 protein (Q13501 whole entry): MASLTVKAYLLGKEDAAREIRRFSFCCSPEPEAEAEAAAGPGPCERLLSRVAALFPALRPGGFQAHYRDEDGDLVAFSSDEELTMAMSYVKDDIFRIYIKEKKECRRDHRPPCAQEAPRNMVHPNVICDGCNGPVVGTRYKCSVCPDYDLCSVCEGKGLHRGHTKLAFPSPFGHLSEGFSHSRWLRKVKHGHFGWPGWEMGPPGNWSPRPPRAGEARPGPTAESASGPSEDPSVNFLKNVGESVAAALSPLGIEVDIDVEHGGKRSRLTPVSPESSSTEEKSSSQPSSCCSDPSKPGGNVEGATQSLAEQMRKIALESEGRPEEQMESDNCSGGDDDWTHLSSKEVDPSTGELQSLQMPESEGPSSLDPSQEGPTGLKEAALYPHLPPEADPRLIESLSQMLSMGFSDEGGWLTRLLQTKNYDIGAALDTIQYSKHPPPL
Sequence of SQSTM1 (p62) (Q13501 whole entry): as above

| Compound | hit that displaced IA-alkyne probe labeling of C17 on LC3A (loss of in-gel fluorescence) (LC3A (C17)) | other results |
| --- | --- | --- |
| C=CC(=O)NCc1ccc(C(=O)N2CCC(c3nc4ccccc4s3)CC2)cc1 [EN2] | hits | – |
| C=CC(=O)N=C1N=C2C=CC(I)=CN2Cc2ccccc21 [EN7] | hits | targeting of C17 of LC3A, lowest concentration (LC3A): ≥ 1 µM; concentration down to which the compound binds LC3A (LC3A (C17); FIG. 6): ≥ 1 µM |
| C=CCOc1ccccc1CN(C(=O)CCl)c1ccc2c(c1)OCO2 [EN96] | – | cysteine of p62/SQSTM1 modified (p62/SQSTM1 protein): reacts with C113; potency ranking among covalent ligand hits against SQSTM1 (SQSTM1 (p62)): most potent covalent ligand against SQSTM1 |

Continued, in another order:

| hit that displaced IA-alkyne probe labeling of C17 on LC3A (loss of in-gel fluorescence) (LC3A (C17)) | Compound | other results |
| --- | --- | --- |
| hits | C=CC(=O)NC(c1ccco1)c1ccccc1OC (centres unmarked) [EN35] | – |
| hits | C=CC(=O)N1CCC(C)C(c2ccco2)C1 (centres unmarked) [EN40] | – |
